Among the test systems are HOP-62 NSCLC; SK-OV-3 ovarian; MDA-MB-231 breast; RPMI-8226 leukemia; COLO 205 colon; CAKI-1 renal; K-562 leukemia; RXF 393 renal; SK-MEL-5 melanoma; MCF7 breast.
Assay in all cases: inhibition of tumour cell growth, NCI panel, 48 h

Structures are written as SMILES. Where “and” joins values, the source holds several entries; their conditions need not be identical. Equal values may be shown once.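 These data come from cells grown in 96-well plates and exposed to compound for 48 hours at five concentrations. Abbreviation: GI50, concentration required for 50% inhibition of growth. TGI: concentration producing complete growth inhibition.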 Where only a bound is given, the exact number is not on record here.

With `Nc1c2ccccc2nc2ccccc12` (tested in a mixture with another compound), the GI50 in the test on HOP-62 NSCLC is 1540 nM; in the test on SK-OV-3 ovarian, 2390 nM; with MDA-MB-231 breast, 1500 nM; with RPMI-8226 leukemia, 3860 nM; with COLO 205 colon, 753 nM; in the test on CAKI-1 renal, 1830 nM. Moreover, the GI50 in the test on K-562 leukemia was 3810 nM; with RXF 393 renal, 1280 nM; in the test with SK-MEL-5 melanoma, 1600 nM; with MCF7 breast it was 1590 nM. Moreover, the TGI in the test on HOP-62 NSCLC is 4010 nM; with SK-OV-3 ovarian, 10500 nM; in the test with MDA-MB-231 breast, 5840 nM; in the test with RPMI-8226 leukemia, more than 100000 nM; with COLO 205 colon, 2080 nM; in the test with CAKI-1 renal, 5110 nM. In addition, the TGI with K-562 leukemia was determined as 12100 nM; in the test with RXF 393 renal, 3270 nM; in the test on SK-MEL-5 melanoma it was 3010 nM; in the test with MCF7 breast it was 9720 nM.
In the case of `Cn1c(=N)n[n+]([O-])c2ccccc21`, the TGI was 4290 nM and 4980 nM in the test on HOP-62 NSCLC; 46900 nM and 52500 nM in the test with SK-OV-3 ovarian; more than 100000 nM with MDA-MB-231 breast; 5190 nM and 7670 nM with RPMI-8226 leukemia; 5300 nM and 5520 nM with COLO 205 colon; 5860 nM and 6180 nM with CAKI-1 renal. In addition, the TGI is 10800 nM and 5450 nM in the test with K-562 leukemia; 36400 nM with RXF 393 renal; 3320 nM and 2960 nM with SK-MEL-5 melanoma; 5320 nM in the test on MCF7 breast. Moreover, in the test with RPMI-8226 leukemia, the GI50 is 1990 nM and 574 nM.
As for `N#CSc1ccc(S(N)(=O)=O)cc1`, the TGI with HOP-62 NSCLC is more than 100000 nM; in the test with SK-OV-3 ovarian, more than 100000 nM; in the test on MDA-MB-231 breast, more than 100000 nM; in the test with RPMI-8226 leukemia, 61500 nM; in the test on COLO 205 colon it was more than 100000 nM; in the test on CAKI-1 renal it was more than 100000 nM. Moreover, the TGI in the test with K-562 leukemia was more than 100000 nM; in the test with RXF 393 renal, 70600 nM; with SK-MEL-5 melanoma, more than 100000 nM; in the test with MCF7 breast, more than 100000 nM.
Regarding `COc1cnc2c(c1)C(=O)c1c-2n(CCCNC(C)C)c(=O)c2cc([N+](=O)[O-])ccc12`, the GI50 is 85.3 nM in the test on HOP-62 NSCLC; 40.9 nM in the test on SK-OV-3 ovarian; 157 nM in the test on MDA-MB-231 breast; 48.7 nM with RPMI-8226 leukemia; 29.3 nM in the test with COLO 205 colon; 31.4 nM in the test with CAKI-1 renal. Further, the GI50 with K-562 leukemia was 44.3 nM; with RXF 393 renal it was 56.2 nM; with SK-MEL-5 melanoma, 46.1 nM; in the test on MCF7 breast, 11.5 nM. The TGI in the test on HOP-62 NSCLC stood at 340 nM; in the test with SK-OV-3 ovarian, 201 nM; with MDA-MB-231 breast it was 438 nM; in the test on RPMI-8226 leukemia it was 738 nM; in the test with COLO 205 colon, 225 nM; with CAKI-1 renal it was 191 nM. Also, the TGI in the test on K-562 leukemia stood at 485 nM; in the test with RXF 393 renal, 1380 nM; with SK-MEL-5 melanoma it was 177 nM; in the test on MCF7 breast it was 1070 nM.
With `Oc1c(I)cc(I)cc1CN(Cc1ccccn1)Cc1ccccn1`, the GI50 with HOP-62 NSCLC was 311 nM; in the test with SK-OV-3 ovarian, 476 nM; in the test with MDA-MB-231 breast, 1860 nM; in the test on RPMI-8226 leukemia, 1170 nM; with COLO 205 colon, 2000 nM; in the test on CAKI-1 renal, 499 nM. Also, the GI50 was 548 nM in the test with K-562 leukemia, 1860 nM in the test on RXF 393 renal, 542 nM in the test with SK-MEL-5 melanoma and 548 nM in the test with MCF7 breast. In addition, the TGI with HOP-62 NSCLC is 8450 nM; in the test with SK-OV-3 ovarian, 5300 nM; with MDA-MB-231 breast, more than 51300 nM; with RPMI-8226 leukemia, 14100 nM; in the test with COLO 205 colon, 15100 nM; in the test on CAKI-1 renal it was 12200 nM. Also, the TGI is 14600 nM in the test with K-562 leukemia, 9760 nM with RXF 393 renal, 2590 nM in the test with SK-MEL-5 melanoma and more than 39900 nM with MCF7 breast.
Regarding `CCN(CC)CC[n+]1cc2cc(OC)c(OC)cc2c2ccc3cc4c(cc3c21)OCO4`, the GI50 with HOP-62 NSCLC was 354 nM; with SK-OV-3 ovarian, 520 nM; in the test on MDA-MB-231 breast, 709 nM; in the test with RPMI-8226 leukemia, 303 nM; with COLO 205 colon, 418 nM; in the test on CAKI-1 renal, 1990 nM. The GI50 in the test with K-562 leukemia was 288 nM; in the test on RXF 393 renal, 783 nM; with SK-MEL-5 melanoma, 1310 nM; in the test with MCF7 breast, 317 nM. Also, the TGI in the test with HOP-62 NSCLC was found to be 1930 nM; in the test with SK-OV-3 ovarian it was 2080 nM; in the test on MDA-MB-231 breast, 2710 nM; in the test with RPMI-8226 leukemia, 1730 nM; with COLO 205 colon, 2480 nM; with CAKI-1 renal it was 14300 nM. For the same molecule, the TGI with RXF 393 renal came to 2450 nM; in the test on SK-MEL-5 melanoma it was 2610 nM; in the test with MCF7 breast, 2410 nM.
As to `CC(C)(C)c1cc(-c2nc3c(F)c(F)c(F)c(F)c3[nH]2)cc(C(C)(C)C)c1O`, the GI50 in the test on HOP-62 NSCLC, in the test on SK-OV-3 ovarian, in the test with MDA-MB-231 breast, with RPMI-8226 leukemia, in the test on COLO 205 colon and in the test with CAKI-1 renal was more than 100000 nM each time. The GI50 in the test with K-562 leukemia, in the test on RXF 393 renal, in the test on SK-MEL-5 melanoma and in the test with MCF7 breast was more than 100000 nM each time. For the same molecule, the TGI in the test with HOP-62 NSCLC, in the test with SK-OV-3 ovarian, with MDA-MB-231 breast, in the test with RPMI-8226 leukemia, in the test on COLO 205 colon and in the test with CAKI-1 renal was more than 100000 nM in each case. The TGI in the test on K-562 leukemia, in the test on RXF 393 renal, in the test on SK-MEL-5 melanoma and in the test on MCF7 breast was more than 100000 nM in each case.
In the case of `O=S(=O)(Nc1ccccn1)c1ccc(N=Nc2ccc(O)c3ncccc23)cc1`, the GI50 in the test on HOP-62 NSCLC was 1140 nM; with SK-OV-3 ovarian it was 1700 nM; in the test on MDA-MB-231 breast it was 1110 nM; with RPMI-8226 leukemia, 748 nM; in the test on COLO 205 colon, 7620 nM; with CAKI-1 renal, 441 nM. In addition, the GI50 in the test with K-562 leukemia was 734 nM; in the test with RXF 393 renal it was 1240 nM; in the test on SK-MEL-5 melanoma, 683 nM; in the test on MCF7 breast, 1050 nM. Further, the TGI with HOP-62 NSCLC came to 8880 nM; in the test with SK-OV-3 ovarian, 6590 nM; with MDA-MB-231 breast, 6030 nM; in the test with RPMI-8226 leukemia, 27700 nM; with COLO 205 colon it was 26200 nM; with CAKI-1 renal, 4560 nM. The TGI in the test with K-562 leukemia is more than 37700 nM; in the test with RXF 393 renal, 11900 nM; in the test with SK-MEL-5 melanoma it was 1630 nM; in the test with MCF7 breast, 8400 nM.

These data come from PubChem BioAssay (NCI).
